Where two headings read alike, the source gives them in different places.
Key:
[1] = Dispersion of composition in water (visual); assay type: physicochemical; conditions: for liquid dispersibility / wettability: solid placed on liquid (FIG. 2)
Description: That the solid substance has non-wettable or poorly-wettable surfaces may be evidenced by the inability of the substance to effectively disperse in water at room temperature (i.e. when added to water, the substance substantially floats on top of the water or is poorly dispersed in the water, see FIG. 2). A sample was added to water to assay the dispersion of the composition. […] A sample of the composition was added to water and mixed and allowed to stand. […] A sample of the composition was added to water and mixed and allowed to stand.

[2] = PEA pharmacokinetics, single 300 mg dose; assay type: in vivo, human; conditions: for Cmax: po, 300 mg
Description: A single equivalent dose, randomised, double blinded study was used to evaluate the pharmacokinetics of 2 different PEA formulations administered in single 300 mg doses (standard PEA and Lipisperse PEA from Batch#MT20170615_01 described in Example 7). All trial participants, investigators conducting the trial and the biochemist analysing the samples were blinded to who was on each product.
Subjects were healthy adult male (n=10) and female (n=8; non-pregnant and non-lactating) volunteers between the ages of 18-30 years. All participants were advised to fast from 10:[…] the night prior to the study commencing until the collection of the first blood sample. Breakfast and lunch were provided to the participants at the centre. This is a standard feeding study with nutritionally balanced meals and snacks provided during the 0-6 hour sample collection. Subjects remained on site for the full 6 hours of sample collection. Only participants who provided at least 9 of the 11 samples collected between 0-24 hours had their data analysed.
For PEA pharmacokinetic analysis, blood samples (3mL collected into ethylenediaminetetraacetic acid (EDTA) containing tubes) were drawn prior to supplementation (hour 0) and at 30, 45, 60, 90, 120, 180, 240, 300, 360 minutes and 24 hours post supplementation. Once obtained, the blood collection tube was briefly mixed by inversion, placed on ice and centrifuged within 10 minutes of collection (600×g, 4° C. for 10 minutes) to separate the plasma. Once spun, EDTA plasma was carefully removed and approximately 3×500 μl aliquots made. Aliquots were temporarily stored at −20° C. (<48 hours) before being transported and stored at −80° C.
Plasma samples were removed from storage at −80° C. and allowed to thaw to room temperature. Once thawed, 100 μL of sample was added to a microfuge tube along with 20 μL of an internal standard solution (50 ng/mL of D8-arachidonic acid (D8-AA) in ethanol). Proteins were precipitated by adding 100 μL of acetone. The tubes were capped and vortex mixed for 15 seconds then put on ice for 10 minutes. The resulting solution was spun at 12,000×g for 10 minutes before the supernatant was removed into a new tube. To the supernatant, 800 μL of a methanol/chloroform solution (2:1) was added along with 240 μL of 3M HCl to achieve phase separation. This solution was vortex mixed for 10 seconds followed by gentle mixing on rotator. After 10 minutes of gentle rotation, the tubes were centrifuged at 12,000×g for 10 minutes with the resulting chloroform layer (bottom layer) transferred to a glass culture tube and dried under a stream of nitrogen gas.
Once dry, the samples were reconstituted in 100 μL of ethanol, mixed and the contents transferred to salinized GC-MS glass inserts and dried under nitrogen. Once dry, the samples were derivatized via the addition of 40 μL of pentafluorobenzylbromide (PFBBr, 10% in acetonitrile −4 μL of PFBBr and 36 μL of ACN) and 20 μL di-isopropylethylamine (DIPEA, 10% in acetonitrile−2 μL DIPEA and 18 μL of ACN) and vortex mixed for 5 seconds. Samples were then incubated at room temperature for 30 min before being dried under nitrogen and the insert placed into GC-MS vials. To each vial, 10 μL of anhydrous pyridine and 20 μL of bis-(trimethylsilyl)trifluoroacetamide and trimethylchlorosilane (BSTFA+TMCS, 99:1) was added, the vial capped and vortex mixed for 5 seconds. The samples were incubated for 20 min at 45° C. The samples were allowed to cool before 70 μL of anhydrous hexane was added and the samples place on the auto sampler rack for analysis.
The standard PEA was purchased from Sigma Aldrich (P0359-10MG) and stored at −20° C. as per manufacturer's instructions. The PEA standard was made up to 1 mM solution with ethanol. Working standard solutions were prepared by diluting the 1 mM solution (or 1 μM/mL) 1:10 with ethanol for a 100 nM/mL solution. This solution was further diluted 1:10 with hexane for a concentration of 10 nM/mL. […]

## CCCCCCCCCCCCCCCC(=O)NCCO [PEA, Palmitoylethanolamide]
[1]
  liquid dispersibility / wettability: sitting on top of a liquid, without dispersion

## CCCCCCCCCCCCCCCC(=O)NCCO [Standard PEA, Palmitoylethanolamide]
[2]; both sexes, human, plasma, plasma, single oral 300 mg, n=9 per group, read-out: Cmax PEA
  Cmax: 3010 ± 1240 ng/mL
[2]; both sexes, human, plasma, plasma, single oral 300 mg, n=9 per group, read-out: Delta Cmax (peak change in PEA concentration from baseline)
  Cmax: 410 ng/mL
[2]; both sexes, human, plasma, single oral 300 mg, data not shown, read-out: plasma PEA concentration at the 24 hours collection
  concentration at 24 h: 2690 ± 1060 ng/mL
[2]; both sexes, human, plasma, prior to supplementation (hour 0), n=9 per group, read-out: Baseline PEA concentration
  concentration at 0 h: 2590 ± 770 ng/mL
[2]; plasma PEA, single oral 300 mg
  Peak timing: 45 min
[2]; single 300 mg dose, n=9 per group
  adverse events: No adverse events

## COc1cc(/C=C/C(=O)CC(=O)/C=C/c2ccc(O)c(OC)c2)ccc1O [curcumin]
[1]
  liquid dispersibility / wettability: sitting on top of a liquid, without dispersion

## Oc1ccc(C=Cc2cc(O)cc(O)c2)cc1 [untreated resveratrol, resveratrol]
[1]; added to water, mixed and allowed to stand (FIG. 10, FIG. 16)
  dispersion in water after mixing and standing: does not disperse effectively

— US12383502B2, “Cold-water-dispersible chemical delivery system” (PHARMAKO BIOTECHNOLOGIES PTY LIMITED, priority 2017, dated 2025)
